Assay: molar heat capacity at constant pressure
Conditions: 101.33 kPa

CCC[n+]1ccn(C)c1.[Br-] [1-methyl-3-propylimidazolium bromide]
Conditions | molar heat capacity at constant pressure [J/K/mol]
199.31 K, Crystal, Vacuum adiabatic calorimetry | 164.75
199.46 K, Glass, Small (less than 1 g) adiabatic calorimetry | 175.22
200.05 K, Glass, Small (less than 1 g) adiabatic calorimetry | 176.21
200.67 K, Crystal, Vacuum adiabatic calorimetry | 166
200.97 K, Metastable crystal, Small (less than 1 g) adiabatic calorimetry | 168.83
201.03 K, Crystal, Vacuum adiabatic calorimetry | 166.26
201.36 K, Crystal, Vacuum adiabatic calorimetry | 166.53
202.03 K, Crystal, Vacuum adiabatic calorimetry | 167.06
202.22 K, Glass, Small (less than 1 g) adiabatic calorimetry | 178.79
202.47 K, Glass, Small (less than 1 g) adiabatic calorimetry | 180.24
203.09 K, Crystal, Vacuum adiabatic calorimetry | 167.78
203.39 K, Crystal, Vacuum adiabatic calorimetry | 168.1
203.43 K, Crystal, Vacuum adiabatic calorimetry | 167.91
203.43 K, Metastable crystal, Small (less than 1 g) adiabatic calorimetry | 170.24
204.75 K, Crystal, Vacuum adiabatic calorimetry | 169.11
204.84 K, Glass, Small (less than 1 g) adiabatic calorimetry | 187.91
204.96 K, Glass, Small (less than 1 g) adiabatic calorimetry | 184.36
205.16 K, Crystal, Vacuum adiabatic calorimetry | 169.18
205.49 K, Crystal, Vacuum adiabatic calorimetry | 169.21
205.88 K, Metastable crystal, Small (less than 1 g) adiabatic calorimetry | 171.68
206.12 K, Crystal, Vacuum adiabatic calorimetry | 170
207.12 K, Glass, Small (less than 1 g) adiabatic calorimetry | 199.89
207.47 K, Crystal, Vacuum adiabatic calorimetry | 170.79
207.56 K, Crystal, Vacuum adiabatic calorimetry | 170.75
207.61 K, Glass, Small (less than 1 g) adiabatic calorimetry | 196
208.34 K, Metastable crystal, Small (less than 1 g) adiabatic calorimetry | 173.15
208.84 K, Crystal, Vacuum adiabatic calorimetry | 171.68
209.31 K, Glass, Small (less than 1 g) adiabatic calorimetry | 214.39
209.63 K, Crystal, Vacuum adiabatic calorimetry | 172.23
210.02 K, Glass, Small (less than 1 g) adiabatic calorimetry | 225.97
210.2 K, Crystal, Vacuum adiabatic calorimetry | 172.56
210.79 K, Metastable crystal, Small (less than 1 g) adiabatic calorimetry | 174.52
211.34 K, Glass, Small (less than 1 g) adiabatic calorimetry | 239.57
211.57 K, Crystal, Vacuum adiabatic calorimetry | 173.4
211.7 K, Crystal, Vacuum adiabatic calorimetry | 173.55
212.2 K, Liquid, Small (less than 1 g) adiabatic calorimetry | 259.73
212.93 K, Crystal, Vacuum adiabatic calorimetry | 174.3
213.23 K, Metastable crystal, Small (less than 1 g) adiabatic calorimetry | 176.24
213.27 K, Glass, Small (less than 1 g) adiabatic calorimetry | 257.87
213.77 K, Crystal, Vacuum adiabatic calorimetry | 174.86
214.3 K, Crystal, Vacuum adiabatic calorimetry | 175.3
214.46 K, Liquid, Small (less than 1 g) adiabatic calorimetry | 259.1
215.25 K, Liquid, Small (less than 1 g) adiabatic calorimetry | 259.12
215.66 K, Crystal, Vacuum adiabatic calorimetry | 176.2
215.67 K, Metastable crystal, Small (less than 1 g) adiabatic calorimetry | 177.87
215.84 K, Crystal, Vacuum adiabatic calorimetry | 176.33
216.73 K, Liquid, Small (less than 1 g) adiabatic calorimetry | 260.04
217.03 K, Crystal, Vacuum adiabatic calorimetry | 177.11
217.09 K, Liquid, Small (less than 1 g) adiabatic calorimetry | 259.63
217.24 K, Liquid, Small (less than 1 g) adiabatic calorimetry | 260
217.9 K, Liquid, Small (less than 1 g) adiabatic calorimetry | 259.51
217.92 K, Crystal, Vacuum adiabatic calorimetry | 177.82
218.11 K, Metastable crystal, Small (less than 1 g) adiabatic calorimetry | 179.69
218.4 K, Crystal, Vacuum adiabatic calorimetry | 178.04
219.01 K, Liquid, Small (less than 1 g) adiabatic calorimetry | 260.43
219.18 K, Liquid, Small (less than 1 g) adiabatic calorimetry | 259.88
219.24 K, Liquid, Small (less than 1 g) adiabatic calorimetry | 260.35
219.77 K, Crystal, Vacuum adiabatic calorimetry | 179.06
219.98 K, Liquid, Small (less than 1 g) adiabatic calorimetry | 259.88
219.99 K, Crystal, Vacuum adiabatic calorimetry | 179.17
220.54 K, Metastable crystal, Small (less than 1 g) adiabatic calorimetry | 181.19
221.14 K, Crystal, Vacuum adiabatic calorimetry | 179.92
221.23 K, Liquid, Small (less than 1 g) adiabatic calorimetry | 260.68
221.29 K, Liquid, Small (less than 1 g) adiabatic calorimetry | 260.8
222.07 K, Crystal, Vacuum adiabatic calorimetry | 180.63
222.07 K, Liquid, Small (less than 1 g) adiabatic calorimetry | 260.23
222.51 K, Crystal, Vacuum adiabatic calorimetry | 180.9

— the NIST ThermoML archive (doi:10.1016/j.jct.2006.05.008)
